# Measurements as given in ChEMBL document CHEMBL4261621, “Synthesis of enamino-2-oxindoles via conjugate addition between α-azido ketones and 3-alkenyl oxindoles: Cytotoxicity evaluation and apoptosis inducing studies” (Bioorg Med Chem Lett, 2018).
# Experiments:
# NCI-H460 [1] = assay: Induction of apoptosis in human NCI-H460 cells assessed as necrotic cells at 10 uM after 72 hrs by Annexin V-alexa fluor 488/propidium iodide staining based flow cytometry (reference value: 0.34%); format: functional
# NCI-H460 [2] = assay: Cell cycle arrest in human NCI-H460 cells assessed as accumulation at S phase at 5 uM after 24 hrs by propidium iodide staining based flow cytometry (reference value: 9.93%); format: functional
# NCI-H460 [3] = assay: Induction of morphological changes in human NCI-H460 cells assessed as cell shrinkage after 72 hrs by phase contrast microscopic analysis; format: functional, cell-based
# NCI-H460 [4] = assay: Cell cycle arrest in human NCI-H460 cells assessed as accumulation at S phase at 10 uM after 24 hrs by propidium iodide staining based flow cytometry (reference value: 9.93%); format: functional
# HeLa = assay: Cytotoxicity against human HeLa cells after 72 hrs by MTT assay; format: functional, cell-based
# A549 [5] = assay: Cytotoxicity against human A549 cells after 72 hrs by MTT assay; format: functional, cell-based; details: A549, 72 h
# NCI-H460 [6] = assay: Induction of apoptosis in human NCI-H460 cells assessed as early apoptotic cells at 1 uM after 72 hrs by Annexin V-alexa fluor 488/propidium iodide staining based flow cytometry (reference value: 0.77%); format: functional
# NCI-H460 [7] = assay: Induction of morphological changes in human NCI-H460 cells assessed as cell detachment after 72 hrs by phase contrast microscopic analysis; format: functional, cell-based
# NCI-H460 [8] = assay: Cell cycle arrest in human NCI-H460 cells assessed as accumulation at G0/G1 phase at 1 uM after 24 hrs by propidium iodide staining based flow cytometry (reference value: 49.6%); format: functional
# NCI-H460 [9] = assay: Induction of mitochondrial membrane potential loss in human NCI-H460 cells assessed as depolarized cell population at 10 uM after 72 hrs by JC1 staining based flow cytometry (reference value: 11.63%); format: functional
# NCI-H460 [10] = assay: Inhibition of colony formation in human NCI-H460 cells supplemented with fresh medium containing compounds every 3 days measured after 7 days by crystal violet staining based assay; format: functional, cell-based
# NCI-H460 [11] = assay: Induction of mitochondrial membrane potential loss in human NCI-H460 cells assessed as depolarized cell population at 2.5 uM after 72 hrs by JC1 staining based flow cytometry (reference value: 11.63%); format: functional
# NCI-H460 [12] = assay: Cell cycle arrest in human NCI-H460 cells assessed as accumulation at sub-G1 phase at 10 uM after 24 hrs by propidium iodide staining based flow cytometry (reference value: 0.99%); format: functional
# NCI-H460 [13] = assay: Induction of apoptosis in human NCI-H460 cells assessed as necrotic cells at 2.5 uM after 72 hrs by Annexin V-alexa fluor 488/propidium iodide staining based flow cytometry (reference value: 0.34%); format: functional
# NCI-H460 [14] = assay: Cytotoxicity against human NCI-H460 cells at 30 uM after 48 hrs by MTT assay relative to control; format: functional
# A549 [15] = assay: Cytotoxicity against human A549 cells at 30 uM after 48 hrs by MTT assay relative to control; format: functional
# NCI-H460 [16] = assay: Induction of mitochondrial membrane potential loss in human NCI-H460 cells assessed as depolarized cell population at 1 uM after 72 hrs by JC1 staining based flow cytometry (reference value: 11.63%); format: functional
# NCI-H460 [17] = assay: Induction of apoptosis in human NCI-H460 cells assessed as early apoptotic cells at 10 uM after 72 hrs by Annexin V-alexa fluor 488/propidium iodide staining based flow cytometry (reference value: 0.77%); format: functional
# NCI-H460 [18] = assay: Induction of mitochondrial membrane potential loss in human NCI-H460 cells assessed as depolarized cell population at 5 uM after 72 hrs by JC1 staining based flow cytometry (reference value: 11.63%); format: functional
# NCI-H460 [19] = assay: Induction of apoptosis in human NCI-H460 cells assessed as viable cells at 10 uM after 72 hrs by Annexin V-alexa fluor 488/propidium iodide staining based flow cytometry (reference value: 98.55%); format: functional; details: NCI-H460, 72 h, read-out: Activity
# NCI-H460 [20] = assay: Induction of apoptosis in human NCI-H460 cells assessed as necrotic cells at 5 uM after 72 hrs by Annexin V-alexa fluor 488/propidium iodide staining based flow cytometry (reference value: 0.34%); format: functional
# NCI-H460 [21] = assay: Cell cycle arrest in human NCI-H460 cells assessed as accumulation at S phase at 1 uM after 24 hrs by propidium iodide staining based flow cytometry (reference value: 9.93%); format: functional
# NCI-H460 [22] = assay: Cell cycle arrest in human NCI-H460 cells assessed as accumulation at G0/G1 phase at 2.5 uM after 24 hrs by propidium iodide staining based flow cytometry (reference value: 49.6%); format: functional
# NCI-H460 [23] = assay: Cytotoxicity against human NCI-H460 cells after 72 hrs by MTT assay; format: functional, cell-based; details: NCI-H460, 72 h
# NCI-H460 [24] = assay: Induction of apoptosis in human NCI-H460 cells assessed as necrotic cells at 1 uM after 72 hrs by Annexin V-alexa fluor 488/propidium iodide staining based flow cytometry (reference value: 0.34%); format: functional
# NCI-H460 [25] = assay: Induction of reactive oxygen species generation in human NCI-H460 cells after 24 hrs by DCFDA staining based fluorescence microscopic analysis; format: functional, cell-based
# NCI-H460 [26] = assay: Cell cycle arrest in human NCI-H460 cells assessed as accumulation at sub-G1 phase at 2.5 uM after 24 hrs by propidium iodide staining based flow cytometry (reference value: 0.99%); format: functional
compound,measurement,setting,value
CCOC(=O)/C(=C(\N)C(=O)c1ccccc1)C1C(=O)N(C)c2ccc(F)cc21 (configuration not stated),Activity,NCI-H460 [1],0.03%
same,Activity,NCI-H460 [2],3.59%
same,Activity,NCI-H460 [3],Dose-dependent effect
same,Activity,NCI-H460 [4],3.42%
same,IC50,HeLa,2990 nM
same,IC50,A549 [5],3510 nM
same,Activity,NCI-H460 [6],8.72%
same,Activity,NCI-H460 [7],Dose-dependent effect
same,Activity,NCI-H460 [8],9.77%
same,Activity,NCI-H460 [9],90.49%
same,inhibition,NCI-H460 [10],Dose-dependent effect
same,Activity,NCI-H460 [11],71.6%
same,Activity,NCI-H460 [12],11.66%
same,Activity,NCI-H460 [13],0.34%
same,Activity,NCI-H460 [14],>50%
same,Activity,A549 [15],>50%
same,Activity,NCI-H460 [16],42.95%
same,Activity,NCI-H460 [17],57.78%
same,Activity,NCI-H460 [18],83.8%
same,viability at 10 µM,NCI-H460 [19],40.4%
same,Activity,NCI-H460 [20],0.21%
same,Activity,NCI-H460 [21],6.55%
same,Activity,NCI-H460 [22],9.73%
same,IC50,NCI-H460 [23],1400 nM
same,Activity,NCI-H460 [24],0.24%
same,Activity,NCI-H460 [25],Dose-dependent effect
same,Activity,NCI-H460 [26],9.91%
